Laboratory results from patent publication US9278950B2, “Bicyclic aromatic carboxamide compounds useful as Pim kinase inhibitors” (Incyte Corporation, priority 2013, dated 2016).

Assays:
Type in all cases: biochemical
Pim-3 = target: T1, Pim-3 (Homo sapiens, UniProt Q86V86); assay: Pim-3 kinase assay (Pim enzyme assays, Example A); conditions: 1 mM ATP; read-out: Pim3 IC50
T1 construct: purchased Millipore 14-738
Procedure: (§1) Pim-1 and Pim-3 kinase assays-20 μL reactions were run in white 384 well polystyrene plates dotted with 0.8 μL compound/DMSO in the assay buffer (50 mM Tris, pH 7.5, 0.01% Tween-20, 5 mM mgCl2, 0.01% BSA, 5 mM DTT), containing 0.05 μM Biotin-labeled BAD peptide substrate (AnaSpec 62269), 1 mM ATP, and […] (Pim-1, Invitrogen PV3503) or […] (Pim-3, Millipore 14-738) enzyme for 1 h at 25° C. Reactions were stopped by addition of 10 μL STOP Buffer (150 mM Tris, pH=7.5, 150 mM NaCl, 75 mM EDTA, 0.01% Tween-20, 0.3% BSA,) supplemented with Phospho-Bad (Ser 12) Antibody (Cell Signaling 9291) diluted 666-fold, and Streptavidin donor beads (PerkinElmer 6760002) along with Protein-A acceptor beads (PerkinElmer 6760137) at 15 μg/mL each. Supplementation of the STOP buffer with beads and stopping the reactions were done under reduced light. Prior to the stopping reactions STOP buffer with beads was preincubated for 1 h in the dark at room temperature. After stopping the reactions, plates were incubated for 1 h in the dark at room temperature before reading on a PHERAstar FS plate reader (BMG Labtech) under reduced light.

Pim2 = target: T2, Pim2 (Homo sapiens, UniProt Q9P1W9); assay: Pim-2 kinase assay (Pim enzyme assays, Example A); conditions: 1 mM ATP; read-out: Pim2 IC50
T2 construct: purchased Invitrogen PV3649
T2 sequence (Q9P1W9 whole entry): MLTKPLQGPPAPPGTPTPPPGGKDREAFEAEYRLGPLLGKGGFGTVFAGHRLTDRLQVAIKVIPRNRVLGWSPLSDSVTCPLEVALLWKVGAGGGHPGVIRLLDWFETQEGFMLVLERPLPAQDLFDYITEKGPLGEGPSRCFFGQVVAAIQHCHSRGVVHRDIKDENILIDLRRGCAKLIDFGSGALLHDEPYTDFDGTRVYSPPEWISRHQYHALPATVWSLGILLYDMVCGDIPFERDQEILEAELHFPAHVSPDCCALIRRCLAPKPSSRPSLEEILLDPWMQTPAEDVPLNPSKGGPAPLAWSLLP
Procedure: Pim-2 kinase assay—20 μL reactions were run in white 384 well polystyrene plates dotted with 0.8 μL compound/DMSO in the assay buffer (50 mM Tris, pH 7.5, 0.01% Tween-20, 5 mM mgCl2, 0.01% BSA, 5 mM DTT), containing 0.05 μM Fluorescein-labeled CREBtide peptide substrate (Invitrogen PV3508), 1 mM ATP, and 1 nM enzyme (Invitrogen PV3649) for 2 h at 25° C. Reactions were stopped by addition of 10 μL TR-FRET Dilution Buffer (Invitrogen PV3574) with 30 mM EDTA and 1.5 nM LanthaScreen Tb-CREB pSer133 antibody (Invitrogen PV3566). After 30 min. incubation at room temperature, plates were read on a PHERAstar FS plate reader (BMG Labtech).

Pim-1 = target: T3, Pim-1 (Homo sapiens, UniProt P11309); assay: Pim-1 kinase assay (Pim enzyme assays, Example A); conditions: 1 mM ATP; read-out: Pim1 IC50
T3 construct: purchased Invitrogen PV3503
T3 sequence (P11309 whole entry): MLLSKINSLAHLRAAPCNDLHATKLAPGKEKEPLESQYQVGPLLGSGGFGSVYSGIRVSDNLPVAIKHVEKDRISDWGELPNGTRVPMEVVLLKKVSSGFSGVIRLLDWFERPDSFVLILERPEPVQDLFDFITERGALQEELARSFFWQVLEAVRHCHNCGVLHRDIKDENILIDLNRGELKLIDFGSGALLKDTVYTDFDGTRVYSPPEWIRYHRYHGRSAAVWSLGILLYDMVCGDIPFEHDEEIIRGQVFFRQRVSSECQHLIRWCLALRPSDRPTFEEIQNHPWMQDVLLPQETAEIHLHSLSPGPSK
Procedure: as §1

Row | IC50 (Pim-3) [nM] | IC50 (Pim2) [nM] | IC50 (Pim-1) [nM] | Compound
1 | ≤ 100 | 100 to 1000 | ≤ 100 | Nc1cc2ccc(Br)cc2nc1C(=O)Nc1cnccc1N1CCC[C@H](N)C1 [Example 12, 3-Amino-N-{4-[(3S)-3-aminopiperidin-1-yl]pyridin-3-yl}-7-bromoquinoline-2-carboxamide]
2 | ≤ 100 | 100 to 1000 | ≤ 100 | N#CCc1ccc2cc(N)c(C(=O)Nc3cnccc3N3CCC[C@H](N)C3)nc2c1 [Example 13, 3-Amino-N-{4-[(3S)-3-aminopiperidin-1-yl]pyridin-3-yl}-7-(cyanomethyl)quinoline-2-carboxamide]
3 | ≤ 100 | 100 to 1000 | ≤ 100 | CCc1cc2nc(C(=O)Nc3cnccc3N3CCC[C@H](N)C3)c(N)cc2cc1F [Example 14, 3-Amino-N-{4-[(3S)-3-aminopiperidin-1-yl]pyridin-3-yl}-7-ethyl-6-fluoroquinoline-2-carboxamide]
4 | ≤ 100 | 100 to 1000 | ≤ 100 | CC(O)c1ccc2cc(N)c(C(=O)Nc3cnccc3N3CCC[C@H](N)C3)nc2c1 (stereo partly drawn) [Example 15, 3-Amino-N-{4-[(3S)-3-aminopiperidin-1-yl]pyridin-3-yl}-7-(1-hydroxyethyl)quinoline-2-carboxamide]
5 | ≤ 100 | 100 to 1000 | ≤ 100 | CC(C)(O)c1ccc2cc(N)c(C(=O)Nc3cnccc3N3CCC[C@H](N)C3)nc2c1 [Example 16, 3-Amino-N-{4-[(3S)-3-aminopiperidin-1-yl]pyridin-3-yl}-7-(1-hydroxy-1-methylethyl)quinoline-2-carboxamide]
6 | ≤ 100 | > 2000 | ≤ 100 | Nc1cc2ccc(C(O)c3ccccc3)cc2nc1C(=O)Nc1cnccc1N1CCC[C@H](N)C1 (stereo partly drawn) [Example 17, 3-Amino-N-{4-[(3S)-3-aminopiperidin-1-yl]pyridin-3-yl}-7-[hydroxy(phenyl)methyl]quinoline-2-carboxamide]
7 | ≤ 100 | 100 to 1000 | ≤ 100 | CC(F)c1ccc2cc(N)c(C(=O)Nc3cnccc3N3CCC[C@H](N)C3)nc2c1 (stereo partly drawn) [Example 18, 3-Amino-N-{4-[(3S)-3-aminopiperidin-1-yl]pyridin-3-yl}-7-(1-fluoroethyl)quinoline-2-carboxamide]
8 | ≤ 100 | > 2000 | ≤ 100 | Nc1cc2ccc(CN3CCCC3)cc2nc1C(=O)Nc1cnccc1N1CCC[C@H](N)C1 [Example 19, 3-Amino-N-{4-[(3S)-3-aminopiperidin-1-yl]pyridin-3-yl}-7-(pyrrolidin-1-ylmethyl)quinoline-2-carboxamide]
9 | ≤ 100 | > 2000 | ≤ 100 | CN(C)Cc1ccc2cc(N)c(C(=O)Nc3cnccc3N3CCC[C@H](N)C3)nc2c1 [Example 20, 3-Amino-N-{4-[(3S)-3-aminopiperidin-1-yl]pyridin-3-yl}-7-[(dimethylamino)methyl]quinoline-2-carboxamide]
10 | ≤ 100 |  | ≤ 100 | CCOc1ccc2cc(N)c(C(=O)Nc3cnccc3N3CCC[C@H](N)C3)nc2n1 [Example 25, 3-Amino-N-{4-[(3S)-3-aminopiperidin-1-yl]pyridin-3-yl}-7-ethoxy-1,8-naphthyridine-2-carboxamide]
11 | ≤ 100 |  | ≤ 100 | CCOc1ccc2cc(N)c(C(=O)Nc3cnccc3N3C[C@@H](N)[C@H](O)[C@@H](C)C3)nc2n1 [Example 26, 3-Amino-N-{4-[(3R,4R,5S)-3-amino-4-hydroxy-5-methylpiperidin-1-yl]pyridin-3-yl}-7-ethoxy-1,8-naphthyridine-2-carboxamide]
12 | ≤ 100 |  | ≤ 100 | CCc1cc2nc(C(=O)Nc3cnccc3N3CCC[C@H](N)C3)c(N)cc2cn1 [Example 27, 3-Amino-N-{4-[(3S)-3-aminopiperidin-1-yl]pyridin-3-yl}-7-ethyl-1,6-naphthyridine-2-carboxamide]

More lines, now with the values behind:

Row | Compound | IC50 (Pim-3) [nM] | IC50 (Pim2) [nM] | IC50 (Pim-1) [nM]
13 | CCc1ccc2cc(N)c(C(=O)Nc3cnc4c(c3N3CCC[C@H](N)C3)CCC4O)nc2c1 (single isomer, unassigned) [22 isomer 2] | ≤ 100 | > 2000 | ≤ 100
14 | Nc1cc2ccc(C3CCNCC3)cc2nc1C(=O)Nc1cnccc1N1CCC[C@H](N)C1 [Example 1, 3-Amino-N-{4-[(3S)-3-aminopiperidin-1-yl]pyridin-3-yl}-7-piperidin-4-ylquinoline-2-carboxamide] | ≤ 100 | 100 to 1000 | ≤ 100
15 | Nc1cc2ccc(C3CCOCC3)cc2nc1C(=O)Nc1cnccc1N1CCC[C@H](N)C1 [Example 2, 3-Amino-N-{4-[(3S)-3-aminopiperidin-1-yl]pyridin-3-yl}-7-(tetrahydro-2H-pyran-4-yl)quinoline-2-carboxamide] | ≤ 100 | 100 to 1000 | ≤ 100
16 | Nc1cc2ccc(-c3c(F)cccc3F)cc2nc1C(=O)Nc1cnccc1N1CCC[C@H](N)C1 [Example 3, 3-Amino-N-{4-[(3S)-3-aminopiperidin-1-yl]pyridin-3-yl}-7-(2,6-difluorophenyl)quinoline-2-carboxamide] | ≤ 100 | 100 to 1000 | ≤ 100
17 | Cn1nccc1-c1ccc2cc(N)c(C(=O)Nc3cnccc3N3CCC[C@H](N)C3)nc2c1 [Example 4, 3-Amino-N-{4-[(3S)-3-aminopiperidin-1-yl]pyridin-3-yl}-7-(1-methyl-1H-pyrazol-5-yl)quinoline-2-carboxamide] | ≤ 100 | 1000 to 10000 | ≤ 100
18 | N#Cc1ccccc1-c1ccc2cc(N)c(C(=O)Nc3cnccc3N3CCC[C@H](N)C3)nc2c1 [Example 5, 3-Amino-N-{4-[(3S)-3-aminopiperidin-1-yl]pyridin-3-yl}-7-(2-cyanophenyl)quinoline-2-carboxamide] | ≤ 100 | ≤ 100 | ≤ 100
19 | N#Cc1cccc(F)c1-c1ccc2cc(N)c(C(=O)Nc3cnccc3N3CCC[C@H](N)C3)nc2c1 [Example 7, 3-Amino-N-{4-[(3S)-3-aminopiperidin-1-yl]pyridin-3-yl}-7-(2-cyano-6-fluorophenyl)quinoline-2-carboxamide] | ≤ 100 | ≤ 100 | ≤ 100
20 | NC(=O)c1cccc(F)c1-c1ccc2cc(N)c(C(=O)Nc3cnccc3N3CCC[C@H](N)C3)nc2c1 [Example 8, 3-Amino-7-[2-(aminocarbonyl)-6-fluorophenyl]-N-{4-[(3S)-3-aminopiperidin-1-yl]pyridin-3-yl}quinoline-2-carboxamide] | ≤ 100 | > 2000 | > 40
21 | CC(C)c1ccc2cc(N)c(C(=O)Nc3cnccc3N3CCC[C@H](N)C3)nc2c1 [Example 9, 3-Amino-N-{4-[(3S)-3-aminopiperidin-1-yl]pyridin-3-yl}-7-isopropylquinoline-2-carboxamide] | ≤ 100 | ≤ 100 | ≤ 100
22 | CCc1ccc2cc(N)c(C(=O)Nc3cnccc3N3CCC[C@H](N)C3)nc2c1 [Example 10, 3-Amino-N-{4-[(3S)-3-aminopiperidin-1-yl]pyridin-3-yl}-7-ethylquinoline-2-carboxamide] | ≤ 100 | ≤ 100 | ≤ 100
23 | Nc1cc2ccccc2nc1C(=O)Nc1cnccc1N1CCC[C@H](N)C1 [Example 11, 3-Amino-N-{4-[(3S)-3-aminopiperidin-1-yl]pyridin-3-yl}quinoline-2-carboxamide] | ≤ 100 | 100 to 1000 | ≤ 100
